In patent US5710153A, “Tetrazole compound” (Ono Phramaceutical Co., Ltd., priority 1995, dated 1998):
pIC50: −log10 of the molar value.

Target: T1, human ICE (Homo sapiens, UniProt P29466)
T1 sequence (P29466 120-297 limits assumed): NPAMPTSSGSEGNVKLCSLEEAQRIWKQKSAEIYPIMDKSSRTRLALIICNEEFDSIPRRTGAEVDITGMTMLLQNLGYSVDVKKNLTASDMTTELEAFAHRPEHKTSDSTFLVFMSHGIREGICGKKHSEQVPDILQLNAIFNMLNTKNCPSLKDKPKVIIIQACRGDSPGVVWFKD
T1 sequence (P29466 317-404 limits assumed): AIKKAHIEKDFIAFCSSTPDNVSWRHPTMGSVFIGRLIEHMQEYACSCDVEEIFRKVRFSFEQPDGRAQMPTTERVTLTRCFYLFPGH
Assay: Assay for IL-1β converting enzyme
Type: biochemical
Details: human ICE solution, substrate Ac-Tyr-Val-Ala-Asp-MCA, 37° C., fluorescence
Experimental: (1) Assay for IL-1β converting enzyme
The reaction mixture contains, for example, 20 mM of HEPES-NaOH pH7.4, 10 mM of KOH, 1.5 mM of MgCl2, 0.1 mM of EDTA and 10% glycerol. Various concentrations of test compounds (50 μl), human ICE solution (50 μl) and various concentrations of substrate (Ac-Tyr-VaI-Ala-Asp-MCA) were mixed and incubated at 37° C. Fluorescence intensity was measured at […].
In the aboved example method,
HEPES is 4-(2-Hydroxyethyl)-1-piperazineethane-sulfonic acid,
EDTA is Ethylenediamine tetraacetate, and
Ac-Tyr-Val-Ala-Asp-MCA is Acetyl-L-tyrosyl-L-valyl-L-alanyl-L-asparaginic acid 4-methyl-coumarinyl-7-amide.

CC(C)[C@H](NC(=O)CCc1ccccc1)C(=O)N[C@@H](C)C(=O)NC(CC(=O)O)C(=O)Cn1nnc(-c2c(Cl)cccc2Cl)n1 (stereo partly drawn) [Example 2(1), N-((N-(3-phenylpropionyl)-L-valyl)-L-alanyl)-3-amino-4-oxo-5-(5-(2,6-dichlorophenyl)tetrazol-2-yl)pentanoic acid]
pIC50: 7.52
